Measurements from the NIST ThermoML archive (doi:10.1016/j.jct.2004.12.008).

Test: xn = mol fraction of the nth substance listed
Details: 101 kPa, Liquid

O=[N+]([O-])c1ccccc1 [nitrobenzene] + Cc1ccccc1C
Details | mass density [kg/m3]
323.15 K, x2 = 0.4345 | 1014.79
323.15 K, x2 = 0.4902 | 996.28
323.15 K, x2 = 0.5689 | 970.68
323.15 K, x2 = 0.6321 | 950.58
323.15 K, x2 = 0.7024 | 928.68
323.15 K, x2 = 0.7842 | 903.78
323.15 K, x2 = 0.8725 | 877.55
323.15 K, x2 = 0.9432 | 857.03
333.15 K, x2 = 0 | 1160.59
333.15 K, x2 = 0.0598 | 1135.86
333.15 K, x2 = 0.1132 | 1114.33
333.15 K, x2 = 0.1935 | 1082.9
333.15 K, x2 = 0.2491 | 1061.75
333.15 K, x2 = 0.3011 | 1042.41
333.15 K, x2 = 0.3672 | 1018.4
333.15 K, x2 = 0.4189 | 1000.06
333.15 K, x2 = 0.4783 | 979.42
333.15 K, x2 = 0.5389 | 958.84
333.15 K, x2 = 0.5901 | 941.8
333.15 K, x2 = 0.6598 | 919.09
333.15 K, x2 = 0.7243 | 898.58
333.15 K, x2 = 0.7929 | 877.26
333.15 K, x2 = 0.8687 | 854.25
333.15 K, x2 = 0.9244 | 837.72
343.15 K, x2 = 0 | 1148
343.15 K, x2 = 0.0587 | 1121.63
343.15 K, x2 = 0.1321 | 1089.78
343.15 K, x2 = 0.1849 | 1067.6
343.15 K, x2 = 0.2378 | 1045.95
343.15 K, x2 = 0.3012 | 1020.73
343.15 K, x2 = 0.3519 | 1001.09
343.15 K, x2 = 0.4242 | 973.86
343.15 K, x2 = 0.4981 | 946.94
343.15 K, x2 = 0.5533 | 927.38
343.15 K, x2 = 0.6232 | 903.27
343.15 K, x2 = 0.6623 | 890.09
343.15 K, x2 = 0.7429 | 863.56
343.15 K, x2 = 0.8122 | 841.44
343.15 K, x2 = 0.8823 | 819.66
343.15 K, x2 = 0.9422 | 801.51
353.15 K, x2 = 0 | 1134.61
353.15 K, x2 = 0.0623 | 1103.66
353.15 K, x2 = 0.1133 | 1079.21
353.15 K, x2 = 0.1892 | 1044.18
353.15 K, x2 = 0.2489 | 1017.71
353.15 K, x2 = 0.3129 | 990.32
353.15 K, x2 = 0.3798 | 962.71
353.15 K, x2 = 0.4124 | 949.61
353.15 K, x2 = 0.483 | 922.01
353.15 K, x2 = 0.5345 | 902.52
353.15 K, x2 = 0.6084 | 875.41
353.15 K, x2 = 0.6631 | 855.98
353.15 K, x2 = 0.7249 | 834.64
353.15 K, x2 = 0.7931 | 811.8
353.15 K, x2 = 0.852 | 792.66
353.15 K, x2 = 0.9123 | 773.59
